Experimental data taken from US11278504B1, “Treatment of a lionfish sting and formulations for use thereof” (priority 2019, dated 2022).

Key:
P2X3 receptor = target: T1, P2X3 receptor (Homo sapiens, UniProt P56373); experiment: Calcium imaging of cultured human nociceptors exposed to lionfish venom; format: cell-based; details: AF-353 300 nM, 8-minute incubation; p<0.001 Fisher's exact test
T1 construct: dorsal root ganglia were isolated from human organ donors and placed in culture; endogenous in cells; host or cells: primary sensory neurons cultured from human donor dorsal root ganglia
Procedure: To verify the efficacy of this compound in humans, dorsal root ganglia were isolated from human organ donors and placed in culture between 3 and 5 hours after cross-clamping the heart. Sensory neurons were cultured for at least 5 days before performing any experiments to allow for satellite cell detachment. For calcium imaging experiments, human nociceptors were exposed to the lionfish venom in the presence of the P2X3 receptor antagonist AF-353 (300 nM), which was introduced in the bath solution (in mM: NaCl 150, KCl 3, Glucose 10, CaCl2) 2, and MgCl2 1; in distilled water, buffered to a pH of 7.3). Cells were incubated with AF-353 for 8-minutes either after an initial application of lionfish venom or before any applications of the venom. Venom was applied in 2-second puffs with a picospritzer as in FIG. 2.

P2X3 = target: T2, P2X3 (Mus musculus, UniProt Q3UR32); experiment: Spontaneous pain assay, intraplantar AF-353 before or after lionfish venom; format: in vivo, mice; details: AF-353 3 mM in 20 μL intraplantar 30 minutes prior or within 2 minutes after 66 μg venom; 1 hour
T2 construct: from tissue; host or cells: living mice, hind paw (whole animal, behavioural read-out)
Procedure: AF-353 was prepared in a stock solution of 300 mM in DMSO and diluted to 3 mM in physiological saline for at the time of experimentation. Mice were injected with AF-353 intraplantarly either 30 minutes prior to injection of lionfish venom, to determine whether the compound could be used as a prophylactic treatment against lionfish envenomations, or immediately (within 2 minutes) after injection of lionfish venom in the paw, in order to determine whether the compound could be used as a treatment after lionfish envenomations. During the experiment, mice were placed on a glass surface with a mirror placed underneath at a 45-degree angle and kept in round Plexi-glass restrainers. A video camera filmed the animals' spontaneous pain behaviour for an hour. The amount of time the mice spent licking their paws was quantified by two independent and blinded experimenters.
Mice were injected with the vehicle (Veh) for AF-353 (DMSO) 30 minutes prior to injection of the Veh for the venom (physiological saline) (empty squares), venom (Vnm) followed by Veh (DMSO; black squares), AF-353 (AF, 3 mM in a total volume of 20 μL) followed by venom (light grey squares), or venom followed by AF-353 (dark grey squares). n=5 mice per group. The dose of venom injected was 66 μg of crude venom in a total volume of 20 μL (veh. saline). […] Stats: ***=P<0.001; **=P=0.009. Unpaired t test.

P2X3 receptors = target: T3, P2X3 receptors (Mus musculus, UniProt Q3UR32); format: cell-based
T3 construct: endogenous in cells; host or cells: primary DRG cultures of TRPV1-Cre::GCaMP6f mice
T3 sequence (Q3UR32 1-397): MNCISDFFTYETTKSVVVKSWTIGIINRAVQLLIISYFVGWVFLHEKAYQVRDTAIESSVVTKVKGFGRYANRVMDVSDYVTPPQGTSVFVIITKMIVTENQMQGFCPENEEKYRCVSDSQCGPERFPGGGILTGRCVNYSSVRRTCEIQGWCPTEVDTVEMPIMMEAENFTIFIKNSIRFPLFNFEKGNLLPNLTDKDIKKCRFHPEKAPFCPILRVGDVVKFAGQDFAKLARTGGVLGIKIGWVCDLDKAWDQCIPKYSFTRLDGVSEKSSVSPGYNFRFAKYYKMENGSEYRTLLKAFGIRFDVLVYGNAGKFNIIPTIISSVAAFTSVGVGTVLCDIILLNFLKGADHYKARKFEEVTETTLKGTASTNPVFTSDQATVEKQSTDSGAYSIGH
Procedure: Cre-dependent GCaMP6f mice (Ai95D; Jackson Labs) were crossed with TRPV1-Cre mice to express GCaMP6f in all nociceptors. In TRPV1-Cre::GCaMP6f mice, GCaMP6f expression is not limited to cells that are TRPV1-positive at maturity, because TRPV1 is expressed broadly amongst nociceptors early in development.
DRG cultures were grown on 35 mm dishes. On the 3rd day, the cultures were treated with complexes of predesigned siRNA molecules directed against mouse P2X3 or a non-targeting control siRNA (Qiagen FlexiTube siRNA final concentration 100 nM) and 2 ul of HiPerFect transfection reagent. The cells were incubated with the transfection complexes for 48 to 72 hours with addition of fresh media 24 h post-transfection.

TRPV1 [1] = target: T4, TRPV1 (Mus musculus, UniProt Q704Y3); format: in vivo, mice; details: 30 mg/kg intraperitoneal; 44 μg venom intraplantar; P=0.841 vs vehicle
Procedure: Protein concentration in the venom extract was determined to be 2.2 μg/μL using the Bio-Rad DC assay. Mice (12-weeks old C57BL/6 males and females, The Jackson Laboratory) were placed in an observation chamber on a glass platform, under which a mirror was placed at a 45° angle so as to show the hind paw of the mouse to the recording videocamera. Once the mice were acclimatized to the chamber, they were taken out and injected in the ventral aspect of their left hind paw with a 20 μl solution of the crude or diluted venom (44 or 4.4 μg/20 μl). The venom was extracted in sterile physiological saline (0.9% NaCl) and the same vehicle was used for dilutions.

TRPV1 [2] = target: T4, TRPV1; format: cell-based, mice
Procedure: To test the TRPV1 receptor antagonist, changes in intracellular calcium concentrations in single cells were recorded as changes in GCaMP6f fluorescence. Exposure to the antagonist (10 μM) and image analysis were performed in a manner similar to the bradykinin (BK) receptor antagonist described above. The TRPV1 receptor agonist capsaicin (1 μM) and lionfish venom were applied during 1 second over the imaging region.

T4 sequence (Q704Y3 whole entry): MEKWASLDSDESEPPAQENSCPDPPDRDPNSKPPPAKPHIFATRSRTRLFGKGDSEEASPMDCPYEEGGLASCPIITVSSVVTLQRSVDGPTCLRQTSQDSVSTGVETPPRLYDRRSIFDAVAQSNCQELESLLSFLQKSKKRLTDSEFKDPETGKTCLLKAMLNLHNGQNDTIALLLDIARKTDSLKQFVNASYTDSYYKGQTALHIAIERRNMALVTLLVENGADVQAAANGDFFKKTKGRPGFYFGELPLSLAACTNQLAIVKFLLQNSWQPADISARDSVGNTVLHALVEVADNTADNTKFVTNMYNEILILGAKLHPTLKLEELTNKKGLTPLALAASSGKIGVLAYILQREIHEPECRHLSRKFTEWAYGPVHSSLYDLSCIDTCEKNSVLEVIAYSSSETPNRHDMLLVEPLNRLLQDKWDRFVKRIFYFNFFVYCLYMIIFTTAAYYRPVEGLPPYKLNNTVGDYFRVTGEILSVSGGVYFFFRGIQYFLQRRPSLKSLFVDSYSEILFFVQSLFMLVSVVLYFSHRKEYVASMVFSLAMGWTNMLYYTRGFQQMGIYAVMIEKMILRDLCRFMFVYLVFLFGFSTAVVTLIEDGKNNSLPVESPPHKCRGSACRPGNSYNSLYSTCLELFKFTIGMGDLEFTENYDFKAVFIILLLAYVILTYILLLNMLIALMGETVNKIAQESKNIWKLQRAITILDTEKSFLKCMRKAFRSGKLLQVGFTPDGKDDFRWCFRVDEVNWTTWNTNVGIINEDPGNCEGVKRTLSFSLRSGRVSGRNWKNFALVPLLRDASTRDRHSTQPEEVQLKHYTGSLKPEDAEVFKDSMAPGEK
T1 sequence (P56373 whole entry): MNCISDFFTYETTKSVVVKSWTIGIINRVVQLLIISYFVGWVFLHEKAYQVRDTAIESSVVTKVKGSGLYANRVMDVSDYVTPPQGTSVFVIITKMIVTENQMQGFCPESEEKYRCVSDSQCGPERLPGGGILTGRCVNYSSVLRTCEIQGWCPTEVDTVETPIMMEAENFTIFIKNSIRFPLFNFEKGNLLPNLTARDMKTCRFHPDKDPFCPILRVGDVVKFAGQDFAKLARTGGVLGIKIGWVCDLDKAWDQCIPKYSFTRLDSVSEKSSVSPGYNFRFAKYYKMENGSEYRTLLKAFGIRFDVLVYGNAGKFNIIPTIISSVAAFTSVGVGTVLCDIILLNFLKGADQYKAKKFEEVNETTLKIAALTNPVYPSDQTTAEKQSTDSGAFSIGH

COc1cc(C(C)C)c(Oc2cnc(N)nc2N)cc1I [AF-353]
venom-induced calcium responses in human nociceptors (P2X3 receptor): do not display calcium responses
pain caused by lionfish venom in vivo (time licking injected paw) (P2X3): effective in reducing or eliminating pain
venom-elicited intracellular calcium responses in cultured mouse nociceptors (P2X3 receptors): reversibly blocks
α,β,Me-ATP-elicited calcium responses in cultured mouse nociceptors (P2X3 receptors; selective P2X3 receptor agonist α,β,Me-ATP): reversibly blocks

CC(C)(C)c1ccc(/C=C/C(=O)Nc2ccc3c(c2)OCCO3)cc1 [AMG-9810]
venom-elicited spontaneous pain behavior over 1 hour after AMG-9810 pretreatment (TRPV1 [1]): independent
Proportion of cultured DRG neurons responding to capsaicin in the presence of AMG-9810 (TRPV1 [2]): 0/65
effect on capsaicin-elicited rise in intracellular calcium (sample traces) (TRPV1 [2]): blocked response
proportion of cells (DRG neurons) responding to the venom in the presence of AMG-9810 (TRPV1 [2]; AMG-9810 10 μM, Fisher exact test P=0.322): 30/32

COc1cc(CNC(=O)CCCC/C=C/C(C)C)ccc1O [capsaicin]
Proportion of cultured DRG neurons responding to capsaicin alone (TRPV1 [2]): 45/65
